Assay results taken from ChEMBL document CHEMBL3992500, “Design, facile synthesis and biological evaluations of novel pyrano[3,2-a]phenazine hybrid molecules as antitumor agents” (Eur J Med Chem, 2017).
Active and inactive are the calls of the source. The calls are words filed in the database; no cut-off is given here.

Columns and labels:
[1] = Antitumor activity against mouse H22-H8D8 cells implanted in ICR mouse assessed as tumor growth inhibition at 20 mg/kg, iv relative to control; assay type: functional; details: read-out: TGI
Mus musculus [2] = test: Toxicity in ICR mouse implanted with mouse H22-H8D8 cells assessed as body weight at 20 mg/kg, iv (reference value: 29.89 to 33.78 g); assay type: organism-based; details: in vivo
HCT-116 = test: Antiproliferative activity against human HCT116 cells after 48 hrs by MTT assay; assay type: functional, cell-based; details: HCT-116, 48 h
MCF7 = test: Antiproliferative activity against human MCF7 cells after 48 hrs by MTT assay; assay type: functional, cell-based; details: MCF7, 48 h
HepG2 [3] = test: Antiproliferative activity against human HepG2 cells after 48 hrs by MTT assay; assay type: functional, cell-based; details: HepG2, 48 h
A549 = test: Antiproliferative activity against human A549 cells after 48 hrs by MTT assay; assay type: functional, cell-based; details: A549, 48 h
[4] = Antitumor activity against mouse H22-H8D8 cells implanted in ICR mouse assessed as tumor growth inhibition at 5 mg/kg, iv relative to control; assay type: functional; details: read-out: TGI
[5] = Antitumor activity against mouse H22-H8D8 cells implanted in ICR mouse assessed as tumor growth inhibition at 10 mg/kg, iv relative to control; assay type: functional; details: read-out: TGI
Mus musculus [6] = test: Toxicity in ICR mouse implanted with mouse H22-H8D8 cells assessed as body weight at 5 mg/kg, iv (reference value: 29.89 to 33.78 g); assay type: organism-based; details: in vivo
Mus musculus [7] = test: Toxicity in ICR mouse implanted with mouse H22-H8D8 cells assessed as body weight at 10 mg/kg, iv (reference value: 29.89 to 33.78 g); assay type: organism-based; details: in vivo
[8] = molecular target: T1, DNA topoisomerase 1 (Homo sapiens) (UniProt P11387); test: Inhibition of DNA topoisomerase-1 (unknown origin) assessed as reduction in enzyme-catalyzed relaxation of pBR322 DNA substrate at 20 uM after 30 mins by ethidium bromide staining based electrophoresis
T1 sequence (whole entry): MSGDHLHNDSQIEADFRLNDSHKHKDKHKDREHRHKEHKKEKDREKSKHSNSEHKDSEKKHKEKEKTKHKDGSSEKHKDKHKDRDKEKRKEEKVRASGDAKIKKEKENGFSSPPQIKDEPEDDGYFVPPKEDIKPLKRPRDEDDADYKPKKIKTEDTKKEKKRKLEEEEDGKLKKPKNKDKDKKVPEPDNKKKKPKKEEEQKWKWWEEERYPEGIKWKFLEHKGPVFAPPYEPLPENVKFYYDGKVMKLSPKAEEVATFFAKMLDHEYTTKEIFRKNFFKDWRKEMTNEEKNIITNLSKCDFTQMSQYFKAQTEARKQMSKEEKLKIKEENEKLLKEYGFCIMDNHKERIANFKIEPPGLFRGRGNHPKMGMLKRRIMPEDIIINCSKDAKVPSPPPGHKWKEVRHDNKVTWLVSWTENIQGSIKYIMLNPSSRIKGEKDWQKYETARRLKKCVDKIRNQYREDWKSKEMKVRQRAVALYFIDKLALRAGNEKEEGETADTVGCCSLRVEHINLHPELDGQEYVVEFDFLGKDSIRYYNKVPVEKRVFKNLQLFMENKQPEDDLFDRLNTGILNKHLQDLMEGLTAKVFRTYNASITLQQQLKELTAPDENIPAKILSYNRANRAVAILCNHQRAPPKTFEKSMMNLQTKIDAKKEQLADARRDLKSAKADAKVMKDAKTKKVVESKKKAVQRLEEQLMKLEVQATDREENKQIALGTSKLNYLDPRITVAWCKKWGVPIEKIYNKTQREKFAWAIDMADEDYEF

[9] = molecular target: DNA topoisomerase 2-alpha (Homo sapiens) (UniProt P11388); test: Inhibition of DNA topoisomerase-2alpha (unknown origin) assessed as reduction in enzyme-catalyzed relaxation of pBR322 DNA substrate at 20 uM after 30 mins by ethidium bromide staining based electrophoresis
[10] = molecular target: T1, DNA topoisomerase 1 (Homo sapiens); test: Inhibition of DNA topoisomerase-1 (unknown origin) assessed as reduction in enzyme-catalyzed relaxation of pBR322 DNA substrate at 2.5 to 5 uM after 30 mins by ethidium bromide staining based electrophoresis
[11] = molecular target: DNA topoisomerase 2-alpha (Homo sapiens) (UniProt P11388); test: Inhibition of DNA topoisomerase-2alpha (unknown origin) assessed as reduction in enzyme-catalyzed relaxation of pBR322 DNA substrate at 20 to 500 nM after 30 mins by ethidium bromide staining based electrophoresis
HepG2 [12] = test: Cell cycle arrest in human HepG2 cells assessed as accumulation at G2/M phase after 24 hrs by propidium iodide staining based flow cytometry; assay type: functional
HepG2 [13] = test: Cell cycle arrest in human HepG2 cells assessed as accumulation at subG1 phase at 2 to 8 uM after 24 hrs by propidium iodide staining based flow cytometry; assay type: functional
HepG2 [14] = test: Upregulation of p53 protein expression in human HepG2 cells after 24 hrs by Western blot method; assay type: functional, cell-based
HepG2 [15] = test: Upregulation of p21 protein expression in human HepG2 cells after 24 hrs by Western blot method; assay type: functional, cell-based
HepG2 [16] = test: Downregulation of cyclin B protein expression in human HepG2 cells after 24 hrs by Western blot method; assay type: functional, cell-based
HepG2 [17] = test: Downregulation of CDK1 protein expression in human HepG2 cells after 24 hrs by Western blot method; assay type: functional, cell-based
HepG2 [18] = test: Induction of apoptosis in human HepG2 cells after 24 hrs by Annexin V-APC/7-AAD staining based flow cytometry; assay type: functional, cell-based
HepG2 [19] = test: Induction of apoptosis in human HepG2 cells assessed as live cells at 2 uM after 24 hrs by Annexin V-APC/7-AAD staining based flow cytometry (reference value: 87%); assay type: functional
HepG2 [20] = test: Induction of apoptosis in human HepG2 cells assessed as early apoptotic cells at 2 uM after 24 hrs by Annexin V-APC/7-AAD staining based flow cytometry (reference value: 0.774%); assay type: functional
HepG2 [21] = test: Induction of apoptosis in human HepG2 cells assessed as late apoptotic cells at 2 uM after 24 hrs by Annexin V-APC/7-AAD staining based flow cytometry (reference value: 6.86%); assay type: functional
HepG2 [22] = test: Induction of apoptosis in human HepG2 cells assessed as necrotic cells at 2 uM after 24 hrs by Annexin V-APC/7-AAD staining based flow cytometry (reference value: 5.35%); assay type: functional
HepG2 [23] = test: Induction of apoptosis in human HepG2 cells assessed as live cells at 4 uM after 24 hrs by Annexin V-APC/7-AAD staining based flow cytometry (reference value: 87%); assay type: functional
HepG2 [24] = test: Induction of apoptosis in human HepG2 cells assessed as early apoptotic cells at 4 uM after 24 hrs by Annexin V-APC/7-AAD staining based flow cytometry (reference value: 0.774%); assay type: functional
HepG2 [25] = test: Induction of apoptosis in human HepG2 cells assessed as late apoptotic cells at 4 uM after 24 hrs by Annexin V-APC/7-AAD staining based flow cytometry (reference value: 6.86%); assay type: functional
HepG2 [26] = test: Induction of apoptosis in human HepG2 cells assessed as necrotic cells at 4 uM after 24 hrs by Annexin V-APC/7-AAD staining based flow cytometry (reference value: 5.35%); assay type: functional
HepG2 [27] = test: Induction of apoptosis in human HepG2 cells assessed as live cells at 8 uM after 24 hrs by Annexin V-APC/7-AAD staining based flow cytometry (reference value: 87%); assay type: functional
HepG2 [28] = test: Induction of apoptosis in human HepG2 cells assessed as early apoptotic cells at 8 uM after 24 hrs by Annexin V-APC/7-AAD staining based flow cytometry (reference value: 0.774%); assay type: functional
HepG2 [29] = test: Induction of apoptosis in human HepG2 cells assessed as late apoptotic cells at 8 uM after 24 hrs by Annexin V-APC/7-AAD staining based flow cytometry (reference value: 6.86%); assay type: functional
HepG2 [30] = test: Induction of apoptosis in human HepG2 cells assessed as necrotic cells at 8 uM after 24 hrs by Annexin V-APC/7-AAD staining based flow cytometry (reference value: 5.35%); assay type: functional
HepG2 [31] = test: Induction of apoptosis in human HepG2 cells assessed as increase in Bax/Bcl2 ratio up to 8 uM after 24 hrs by Western blot method; assay type: functional, cell-based
HepG2 [32] = test: Induction of apoptosis in human HepG2 cells assessed as increase in cytochrome c release from mitochondria to cytosol up to 8 uM after 24 hrs by Western blot method; assay type: functional, cell-based
HepG2 [33] = test: Induction of apoptosis in human HepG2 cells assessed as increase in cleaved caspase-3 expression after 24 hrs by Western blot method; assay type: functional, cell-based
HepG2 [34] = test: Induction of apoptosis in human HepG2 cells assessed as increase in cleaved caspase-9 expression after 24 hrs by Western blot method; assay type: functional, cell-based

Sequence of DNA topoisomerase 2-alpha (Homo sapiens) (P11388 whole entry): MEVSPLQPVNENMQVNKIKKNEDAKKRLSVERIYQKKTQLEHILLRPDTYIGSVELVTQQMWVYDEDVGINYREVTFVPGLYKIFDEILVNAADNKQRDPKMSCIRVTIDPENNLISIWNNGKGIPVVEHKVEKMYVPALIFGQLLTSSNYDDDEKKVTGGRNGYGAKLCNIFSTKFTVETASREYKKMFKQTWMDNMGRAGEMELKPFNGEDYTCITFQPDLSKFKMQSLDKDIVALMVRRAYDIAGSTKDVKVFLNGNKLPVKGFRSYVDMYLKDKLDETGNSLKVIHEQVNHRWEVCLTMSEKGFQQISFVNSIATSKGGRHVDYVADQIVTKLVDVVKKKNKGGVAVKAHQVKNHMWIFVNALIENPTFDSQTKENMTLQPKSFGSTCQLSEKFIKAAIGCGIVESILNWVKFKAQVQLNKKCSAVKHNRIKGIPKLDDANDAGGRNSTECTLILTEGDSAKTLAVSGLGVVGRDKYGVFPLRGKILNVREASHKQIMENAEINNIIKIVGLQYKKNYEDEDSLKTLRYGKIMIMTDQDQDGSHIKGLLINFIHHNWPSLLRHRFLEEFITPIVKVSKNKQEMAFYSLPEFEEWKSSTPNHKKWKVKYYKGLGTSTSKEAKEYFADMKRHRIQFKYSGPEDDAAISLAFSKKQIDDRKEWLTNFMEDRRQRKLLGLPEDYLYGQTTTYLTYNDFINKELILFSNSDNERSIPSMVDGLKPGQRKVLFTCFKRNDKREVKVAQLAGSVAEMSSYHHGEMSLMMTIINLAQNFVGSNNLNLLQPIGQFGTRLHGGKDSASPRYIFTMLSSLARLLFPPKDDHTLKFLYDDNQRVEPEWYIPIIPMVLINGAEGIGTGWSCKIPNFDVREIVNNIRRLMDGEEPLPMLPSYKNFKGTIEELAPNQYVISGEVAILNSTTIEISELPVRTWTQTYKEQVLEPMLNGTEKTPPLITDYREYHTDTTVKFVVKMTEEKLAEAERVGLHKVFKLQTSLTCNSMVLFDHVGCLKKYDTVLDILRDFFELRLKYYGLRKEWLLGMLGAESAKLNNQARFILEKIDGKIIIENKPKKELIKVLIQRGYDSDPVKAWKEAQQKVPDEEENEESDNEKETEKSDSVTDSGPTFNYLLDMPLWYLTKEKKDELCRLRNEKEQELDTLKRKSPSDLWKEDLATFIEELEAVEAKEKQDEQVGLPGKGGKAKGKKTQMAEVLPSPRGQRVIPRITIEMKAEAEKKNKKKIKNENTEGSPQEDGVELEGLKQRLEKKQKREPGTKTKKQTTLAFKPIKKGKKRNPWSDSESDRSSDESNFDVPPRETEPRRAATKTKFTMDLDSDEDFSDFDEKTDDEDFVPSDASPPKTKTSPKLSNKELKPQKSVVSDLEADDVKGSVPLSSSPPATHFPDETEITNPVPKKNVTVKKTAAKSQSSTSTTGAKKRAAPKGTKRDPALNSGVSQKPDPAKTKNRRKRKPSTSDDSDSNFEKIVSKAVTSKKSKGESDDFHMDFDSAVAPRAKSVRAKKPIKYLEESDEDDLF

Compound: O=P1(N(CCCl)CCCl)NCCCO1 (centres undefined) [CYCLOPHOSPHAMIDE ANHYDROUS]
- inhibition in vivo at 20 mg/kg [1]: 66.7 to 67.8%
- Activity (Mus musculus [2]): 34.3 to 35.6 g

Compound: N#CC1=C(N)Oc2c(N)cc3nc4ccccc4nc3c2C1c1ccc(Cl)c(Cl)c1 (centres undefined)
- IC50 (HCT-116): 8 µM
- IC50 (MCF7): 7.3 µM
- IC50 (HepG2 [3]): 2.1 µM
- IC50 (A549): 6.8 µM
- inhibition in vivo at 5 mg/kg [4]: 7.78%
- inhibition in vivo at 10 mg/kg [5]: 68.9%
- inhibition in vivo at 20 mg/kg [1]: 77.8%
- Activity (Mus musculus [6]): 38 g
- Activity (Mus musculus [7]): 35.33 g
- Activity (Mus musculus [2]): 35.22 g
- inhibition [8]: Active
- inhibition [9]: Active
- inhibition [10]: Active
- inhibition [11]: Active
- Activity (HepG2 [12]): Dose-dependent effect
- Activity (HepG2 [13]): Active
- Activity (HepG2 [14]): Dose-dependent effect
- Activity (HepG2 [15]): Dose-dependent effect
- Activity (HepG2 [16]): Dose-dependent effect
- Activity (HepG2 [17]): Dose-dependent effect
- Activity (HepG2 [18]): Dose-dependent effect
- Activity (HepG2 [19]): 80%
- Activity (HepG2 [20]): 3.1%
- Activity (HepG2 [21]): 11.2%
- Activity (HepG2 [22]): 5.65%
- Activity (HepG2 [23]): 44.7%
- Activity (HepG2 [24]): 8.97%
- Activity (HepG2 [25]): 31.5%
- Activity (HepG2 [26]): 14.9%
- Activity (HepG2 [27]): 22.5%
- Activity (HepG2 [28]): 3.31%
- Activity (HepG2 [29]): 53.5%
- Activity (HepG2 [30]): 20.7%
- Activity (HepG2 [31]): Active
- Activity (HepG2 [32]): Active
- Activity (HepG2 [33]): Dose-dependent effect
- Activity (HepG2 [34]): Dose-dependent effect

Compound: COc1cc([C@@H]2c3cc4c(cc3[C@@H](O[C@@H]3O[C@@H]5CO[C@@H](C)O[C@H]5[C@H](O)[C@H]3O)[C@H]3COC(=O)[C@H]23)OCO4)cc(OC)c1O
- inhibition [9]: Active

Compound: CC[C@@]1(O)C(=O)OCc2c1cc1n(c2=O)Cc2cc3cc(O)ccc3nc2-1 [HYDROXYCAMPTOTHECIN]
- IC50 (HCT-116): 3.5 µM
- IC50 (MCF7): 2.4 µM
- IC50 (HepG2 [3]): 10.1 µM
- IC50 (A549): 0.8 µM
- inhibition [8]: Active

Compound: CCOC(=O)C1=C(N)Oc2c(N)cc3nc4ccccc4nc3c2C1c1cccc(Cl)c1Cl (centres undefined)
- IC50 (HCT-116): 7.8 µM
- IC50 (MCF7): > 50 µM
- IC50 (HepG2 [3]): 4.48 µM
- IC50 (A549): 7.24 µM
- inhibition in vivo at 5 mg/kg [4]: 27%
- inhibition in vivo at 10 mg/kg [5]: 4.5%
- inhibition in vivo at 20 mg/kg [1]: 26.1%
- Activity (Mus musculus [6]): 37.78 g
- Activity (Mus musculus [7]): 39.22 g
- Activity (Mus musculus [2]): 40.33 g
- inhibition [8]: Active
- inhibition [9]: Active

Compound: COc1ccc(C2C(C#N)=C(N)Oc3c(N)cc4nc5ccccc5nc4c32)cc1F (centres undefined)
- IC50 (HCT-116): 20.4 µM
- IC50 (MCF7): > 50 µM
- IC50 (HepG2 [3]): 7.8 µM
- IC50 (A549): 11.3 µM

Compound: CCOC(=O)C1=C(N)Oc2c(N)cc3nc4ccccc4nc3c2C1c1cccc([N+](=O)[O-])c1 (centres undefined)
- IC50 (HCT-116): > 50 µM
- IC50 (MCF7): 20.2 µM
- IC50 (HepG2 [3]): 7.3 µM
- IC50 (A549): > 50 µM

Compound: CCOC(=O)C1=C(N)Oc2c(N)cc3nc4ccccc4nc3c2C1c1ccc(Cl)c(Cl)c1 (centres undefined)
- IC50 (HCT-116): > 50 µM
- IC50 (MCF7): 8.4 µM
- IC50 (HepG2 [3]): 24.2 µM
- IC50 (A549): 17.1 µM
